Read-outs that look alike come from different tables or passages of the source.

For one data set, the target named is human D3 receptor (Homo sapiens (Human), UniProt P35462). Kind of data set: Radioligand binding assay, [3H]-spiperone, human D3 receptor. Conditions: membranes of HEK293 EBNA cells expressing human D3; 0.5 nM [3H]-spiperone. The method in brief:
(§1)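 Incubation was 1 h at RT, using 1.1 nM [3H]-ketanserin at 5-HT2A or 0.5 nM [3H]-spiperone at D3, on membranes of transiently transfected HEK293 EBNA cells. Nonspecific binding was set with 10 μM unlabelled spiperone.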

The target of the next data set is human 5-HT2A receptor (Homo sapiens (Human), UniProt P28223). Kind of data set: Radioligand binding assay, [3H]-ketanserin, human 5-HT2A receptor. The procedure, abridged:
as §1

A further data set deals with human D2 receptor (Homo sapiens (Human), UniProt P14416). Kind of data set: Radioligand binding assay, [3H]-spiperone, human D2 receptor. The settings on record: membranes of HEK293 EBNA cells expressing human D2; 0.7 nM [3H]-spiperone. The method in brief: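 Competition binding used ~0.7 nM [3H]-spiperone, 1 h at room temperature, pH 7.4 Tris/salt buffer, on transiently transfected HEK293 EBNA membranes bearing human D2.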
Chain of human D2 receptor (P14416 whole entry): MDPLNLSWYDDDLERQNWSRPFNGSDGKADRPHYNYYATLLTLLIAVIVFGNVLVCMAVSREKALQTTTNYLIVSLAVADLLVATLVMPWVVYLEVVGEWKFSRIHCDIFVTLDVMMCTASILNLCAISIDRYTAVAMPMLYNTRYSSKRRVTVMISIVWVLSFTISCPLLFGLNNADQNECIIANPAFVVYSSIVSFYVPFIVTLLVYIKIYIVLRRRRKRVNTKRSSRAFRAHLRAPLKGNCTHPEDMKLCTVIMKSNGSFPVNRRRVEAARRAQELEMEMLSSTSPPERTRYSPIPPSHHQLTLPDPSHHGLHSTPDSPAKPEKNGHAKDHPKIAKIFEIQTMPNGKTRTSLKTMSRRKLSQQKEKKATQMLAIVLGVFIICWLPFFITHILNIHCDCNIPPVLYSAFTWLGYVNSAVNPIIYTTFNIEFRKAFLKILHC

The mark [1] stands for this setting: membranes of HEK293 EBNA cells expressing human 5-HT2A, 1.1 nM [3H]-ketanserin.

Chain of human 5-HT2A receptor (P28223 whole entry): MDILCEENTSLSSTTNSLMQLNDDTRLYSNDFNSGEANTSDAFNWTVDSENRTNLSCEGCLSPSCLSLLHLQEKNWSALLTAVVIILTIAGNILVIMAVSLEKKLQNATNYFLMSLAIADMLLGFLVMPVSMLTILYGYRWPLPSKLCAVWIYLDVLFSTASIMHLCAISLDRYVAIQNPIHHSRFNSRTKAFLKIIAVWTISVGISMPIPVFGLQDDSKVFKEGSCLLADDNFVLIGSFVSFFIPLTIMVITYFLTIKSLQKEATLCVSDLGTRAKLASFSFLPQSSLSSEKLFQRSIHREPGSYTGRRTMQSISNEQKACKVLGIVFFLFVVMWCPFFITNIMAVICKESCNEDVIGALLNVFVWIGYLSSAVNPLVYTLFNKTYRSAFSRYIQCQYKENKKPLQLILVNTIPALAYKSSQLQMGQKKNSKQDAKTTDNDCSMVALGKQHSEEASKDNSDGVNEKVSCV
Chain of human D3 receptor (P35462 whole entry): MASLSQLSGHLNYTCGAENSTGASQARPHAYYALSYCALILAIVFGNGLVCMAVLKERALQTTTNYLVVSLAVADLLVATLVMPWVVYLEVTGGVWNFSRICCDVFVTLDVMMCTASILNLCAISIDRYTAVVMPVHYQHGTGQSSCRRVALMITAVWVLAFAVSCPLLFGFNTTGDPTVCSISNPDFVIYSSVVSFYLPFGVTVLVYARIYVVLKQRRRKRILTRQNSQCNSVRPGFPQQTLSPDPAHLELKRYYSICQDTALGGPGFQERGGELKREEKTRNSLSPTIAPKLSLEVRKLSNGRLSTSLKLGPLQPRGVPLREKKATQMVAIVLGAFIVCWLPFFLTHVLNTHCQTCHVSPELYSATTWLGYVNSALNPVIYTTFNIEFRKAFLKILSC

As usually defined, the Ki is a measure of affinity in units of concentration, obtained from inhibition or displacement. Broadly, the melting point is the temperature, or range, at which the solid turns liquid. For `O=C(CC1CCOCC1)N[C@H]1CC[C@H](CCN2CCN(c3nccc4c3CCO4)CC2)CC1` [Example 34, trans-N-(4-{2-[4-(2,3-Dihydrofuro[3,2-c]pyridin-4-yl)-piperazin-1-yl]-ethyl}-cyclohexyl)-2-(tetrahydro-2H-pyran-4-yl)-acetamide], the melting point was 233 °C. In addition, on human D3 receptor, the Ki was determined as 24.9 nM. The Ki on human 5-HT2A receptor (setting [1]) was found to be 20.1 nM. The Ki on human D2 receptor worked out at 869 nM.

Compound `COCCC(=O)N[C@H]1CC[C@H](CCN2CCN(c3nccc4c3CCO4)CC2)CC1` [Example 35, trans-N-(4-{2-[4-(2,3-Dihydrofuro[3,2-c]pyridin-4-yl)-piperazin-1-yl]-ethyl}-cyclohexyl)-3-methoxypropanamide] had a melting point of 246.5 °C. Further, on human D3 receptor, the Ki was 17.4 nM. Besides, the Ki at human 5-HT2A receptor (setting [1]) was found to be 24.1 nM. Moreover, the Ki at human D2 receptor was 1490 nM.

Turning to `CCC(=O)N[C@H]1CC[C@H](CCN2CCN(c3nccc4c3CCO4)CC2)CC1` [Example 36, trans-N-(4-{2-[4-(2,3-Dihydrofuro[3,2-c]pyridin-4-yl)-piperazin-1-yl]-ethyl}-cyclohexyl)-propionamide], the melting point was found to be 192.5 °C. The Ki on human D3 receptor is 9.7 nM. For the same compound, on human 5-HT2A receptor (setting [1]), the Ki came to 13.3 nM. Moreover, the Ki at human D2 receptor was found to be 813 nM.

Take `COCC(=O)N[C@H]1CC[C@H](CCN2CCN(c3nccc4c3CCO4)CC2)CC1` [Example 38, trans-N-(4-{2-[4-(2,3-Dihydrofuro[3,2-c]pyridin-4-yl)-piperazin-1-yl]-ethyl}-cyclohexyl)-2-methoxyacetamide]: the melting point worked out at 169.5 °C. Moreover, the Ki at human D3 receptor came out at 45.4 nM. The Ki at human 5-HT2A receptor came to 11 nM. In addition, the Ki on human D2 receptor is 1550 nM.

`CS(=O)(=O)CC(=O)N[C@H]1CC[C@H](CCN2CCN(c3nccc4c3CCO4)CC2)CC1` [Example 39, trans-N-(4-{2-[4-(2,3-Dihydrofuro[3,2-c]pyridin-4-yl)-piperazin-1-yl]-ethyl}-cyclohexyl)-methylsulfonyl-acetamide] had a melting point of 260.5 °C. On human D3 receptor, the Ki was 9.8 nM. Also, the Ki at human 5-HT2A receptor is 16.1 nM. Further, the Ki on human D2 receptor came to 1020 nM.

The compound `O=C(CO)N[C@H]1CC[C@H](CCN2CCN(c3nccc4c3CCO4)CC2)CC1` [Example 40, trans-N-(4-{2-[4-(2,3-Dihydrofuro[3,2-c]pyridin-4-yl)-piperazin-1-yl]-ethyl}-cyclohexyl)-hydroxyacetamide] displayed a melting point of 237 °C. Further, the Ki on human D3 receptor was 15.9 nM. The Ki on human 5-HT2A receptor (setting [1]) is 12.2 nM. Besides, the Ki on human D2 receptor came to 1570 nM.

The compound `O=C(CCO)N[C@H]1CC[C@H](CCN2CCN(c3nccc4c3CCO4)CC2)CC1` [Example 41, trans-N-(4-{2-[4-(2,3-Dihydrofuro[3,2-c]pyridin-4-yl)-piperazin-1-yl]-ethyl}-cyclohexyl)-3-hydroxypropanamide] came in with a melting point of 173 °C. For the same compound, the Ki at human D3 receptor came to 11.5 nM. Also, the Ki at human 5-HT2A receptor worked out at 35.7 nM. Besides, the Ki on human D2 receptor turned out to be 734 nM.

`O=C(N[C@H]1CC[C@H](CCN2CCN(c3nccc4c3CCO4)CC2)CC1)c1ccccc1` [Example 44, trans-N-(4-{2-[4-(2,3-Dihydro-furo[3,2-c]pyridin-4-yl)-piperazin-1-yl]-ethyl}-cyclohexyl)-benzamide] gave a melting point of 207.5 °C. The inhibition constant Ki at human D3 receptor was found to be 7.66 nM. The Ki on human 5-HT2A receptor (setting [1]) stood at 7.63 nM. Also, the Ki at human D2 receptor was 481 nM.

In the case of `O=C(N[C@H]1CC[C@H](CCN2CCN(c3nccc4c3CCO4)CC2)CC1)c1ccc(F)cc1` [Example 45, trans-N-(4-{2-[4-(2,3-Dihydro-furo[3,2-c]pyridin-4-yl)-piperazin-1-yl]-ethyl}-cyclohexyl)-4-fluoro-benzamide], the melting point came out at 209.5 °C. The Ki at human D3 receptor is 10.7 nM. For the same compound, the Ki at human 5-HT2A receptor turned out to be 11.1 nM. Besides, the Ki on human D2 receptor is 342 nM.

Turning to `O=C(N[C@H]1CC[C@H](CCN2CCN(c3nccc4c3CCO4)CC2)CC1)c1ccc(Cl)cc1` [Example 46, trans-4-Chloro-N-(4-{2-[4-(2,3-dihydro-furo[3,2-c]pyridin-4-yl)-piperazin-1-yl]-ethyl}-cyclohexyl)-benzamide], the melting point was found to be 226.5 °C. The Ki at human D3 receptor stood at 13.2 nM. In addition, the Ki at human 5-HT2A receptor was 14.8 nM. The inhibition constant Ki at human D2 receptor was found to be 289 nM.

For `O=C(N[C@H]1CC[C@H](CCN2CCN(c3nccc4c3CCO4)CC2)CC1)c1ccc(C(F)(F)F)cc1` [Example 47, trans-N-(4-{2-[4-(2,3-Dihydro-furo[3,2-c]pyridin-4-yl)-piperazin-1-yl]-ethyl}-cyclohexyl)-4-trifluoromethyl-benzamide], the melting point was determined as 227 °C. For the same compound, the Ki on human D3 receptor was determined as 57 nM. The Ki on human 5-HT2A receptor (setting [1]) was found to be 18.8 nM. The Ki at human D2 receptor came out at 871 nM.

`CS(=O)(=O)N[C@H]1CC[C@H](CCN2CCN(c3nccc4c3CCO4)CC2)CC1` [Example 48, trans-N-(4-{2-[4-(2,3-Dihydro-furo[3,2-c]pyridin-4-yl)-piperazin-1-yl]-ethyl}-cyclohexyl)-methanesulfonamide] came in with a melting point of 220 °C. Besides, at human D3 receptor, the Ki was found to be 31.6 nM. Besides, the Ki at human 5-HT2A receptor (setting [1]) stood at 21.7 nM. Moreover, the Ki on human D2 receptor came out at 1270 nM.

On to `CCS(=O)(=O)N[C@H]1CC[C@H](CCN2CCN(c3nccc4c3CCO4)CC2)CC1` [Example 49, Ethanesulfonic acid trans-(4-{2-[4-(2,3-dihydro-furo[3,2-c]pyridin-4-yl)-piperazin-1-yl]-ethyl}-cyclohexyl)-amide], for which the melting point amounted to 224 °C. Also, at human D3 receptor, the Ki came out at 22 nM. In addition, the Ki on human 5-HT2A receptor came out at 17.6 nM. Moreover, the Ki at human D2 receptor turned out to be 1090 nM.

Regarding `O=S(=O)(N[C@H]1CC[C@H](CCN2CCN(c3nccc4c3CCO4)CC2)CC1)c1ccc(F)cc1` [Example 50, trans-N-(4-{2-[4-(2,3-Dihydro-furo[3,2-c]pyridin-4-yl)-piperazin-1-yl]-ethyl}-cyclohexyl)-4-fluoro-benzenesulfonamide], the melting point was 221 °C. The Ki at human D3 receptor came out at 6.72 nM. Besides, at human 5-HT2A receptor (setting [1]), the Ki was 39.4 nM. Also, the Ki on human D2 receptor amounted to 240 nM.

Turning to `O=C(CC1CC1)N[C@H]1CC[C@H](CCN2CCN(c3nccc4c3CCO4)CC2)CC1` [Example 51, trans-2-Cyclopropyl-N-(4-{2-[4-(2,3-dihydro-furo[3,2-c]pyridin-4-yl)-piperazin-1-yl]-ethyl}-cyclohexyl)-acetamide], the melting point worked out at 193 °C. On human D3 receptor, the Ki was 5.07 nM. Also, on human 5-HT2A receptor, the Ki came out at 13.7 nM. Besides, at human D2 receptor, the Ki amounted to 587 nM.

Turning to `O=C(N[C@H]1CC[C@H](CCN2CCN(c3nccc4c3CCO4)CC2)CC1)C1CCC1` [Example 52, Cyclobutanecarboxylic acid trans-(4-{2-[4-(2,3-dihydro-furo[3,2-c]pyridin-4-yl)-piperazin-1-yl]-ethyl}-cyclohexyl)-amide], the melting point was determined as 202 °C. In addition, on human D3 receptor, the Ki was 15.7 nM. Also, the Ki at human 5-HT2A receptor (setting [1]) came out at 10.1 nM. Moreover, the Ki at human D2 receptor is 555 nM.

The compound `C[C@]1(O)CC[C@H](C(=O)N[C@H]2CC[C@H](CCN3CCN(c4nccc5c4CCO5)CC3)CC2)CC1` [Example 54, trans-4-Hydroxy-4-methyl-cyclohexanecarboxylic acid trans-(4-{2-[4-(2,3-dihydro-furo[3,2-c]pyridin-4-yl)-piperazin-1-yl]-ethyl}-cyclohexyl)-amide] gave a melting point of 171 °C. Moreover, the Ki on human D3 receptor was found to be 51.4 nM. Further, on human 5-HT2A receptor (setting [1]), the Ki came out at 12.6 nM. Moreover, on human D2 receptor, the Ki was 506 nM.

Take `C[C@]1(O)CC[C@@H](C(=O)N[C@H]2CC[C@H](CCN3CCN(c4nccc5c4CCO5)CC3)CC2)CC1` [Example 55, cis-4-Hydroxy-4-methyl-cyclohexanecarboxylic acid trans-(4-{2-[4-(2,3-dihydro-furo[3,2-c]pyridin-4-yl)-piperazin-1-yl]-ethyl}-cyclohexyl)-amide]: the melting point came out at 216.5 °C. In addition, on human D3 receptor, the Ki was 45.3 nM. For the same compound, the inhibition constant Ki at human 5-HT2A receptor (setting [1]) was determined as 6.14 nM. Further, the Ki on human D2 receptor was determined as 475 nM.

Compound `O=C(N[C@H]1CC[C@H](CCN2CCN(c3nccc4c3CCO4)CC2)CC1)c1ccc(N2CCCCC2)cc1` [Example 56, trans-N-(4-{2-[4-(2,3-Dihydro-furo[3,2-c]pyridin-4-yl)-piperazin-1-yl]-ethyl}-cyclohexyl)-4-piperidin-1-yl-benzamide] yielded a melting point of 214.5 °C. The inhibition constant Ki at human D3 receptor came to 44.3 nM. The Ki on human 5-HT2A receptor was 19.2 nM. In addition, the Ki at human D2 receptor came to 5340 nM.

The compound `O=C(N[C@H]1CC[C@H](CCN2CCN(c3nccc4c3CCO4)CC2)CC1)c1ccc(N2CCOCC2)cc1` [Example 57, trans-N-(4-{2-[4-(2,3-Dihydro-furo[3,2-c]pyridin-4-yl)-piperazin-1-yl]-ethyl}-cyclohexyl)-4-morpholin-4-yl-benzamide] came in with a melting point of 228.5 °C. The Ki at human D3 receptor was found to be 16.9 nM. Also, the Ki at human 5-HT2A receptor (setting [1]) was 4.52 nM. Moreover, the Ki at human D2 receptor was determined as 867 nM.

Take `O=C(N[C@H]1CC[C@H](CCN2CCN(c3nccc4c3CCO4)CC2)CC1)C1(O)CC1` [Example 58, 1-Hydroxy-cyclopropanecarboxylic acid trans-(4-{2-[4-(2,3-dihydro-furo[3,2-c]pyridin-4-yl)-piperazin-1-yl]-ethyl}-cyclohexyl)-amide]: the melting point was determined as 174.5 °C. Besides, on human D3 receptor, the Ki is 27.1 nM. The Ki on human 5-HT2A receptor (setting [1]) came out at 5.92 nM. In addition, the Ki at human D2 receptor was found to be 593 nM.

Values taken from patent US8586579B2, “Anellated pyridine compounds” (Hoffmann-La Roche Inc., priority 2010, dated 2013).
